According to US12215106B2, “Pharmaceutical compounds and therapeutic methods” (RUTGERS, THE STATE UNIVERSITY OF NEW JERSEY, priority 2018, dated 2025):
Where a name gives a salt, the structure may show the parent alone. Read-outs that look alike come from different tables or passages of the source. Marks after values point to notes of the source that are not given here.

Test: Plasma pharmacokinetics and brain distribution after single IV, IP and oral administration
Type: in vivo
Conditions: male, C57BL/6, mouse
Protocol: (§1) The objective of this study was to investigate the plasma pharmacokinetics and brain distribution of Compound (14 in male C57BL/6 mice following a single intravenous, intraperitoneal and oral administration. A group of sixty-three male mice were divided into three groups (Group 1: 2 mg/kg/IV; Group 2: 10 mg/kg/IP and Group 3: 10 mg/kg/PO) with each group comprising of twenty-one mice.
Animals in Group 1 were administered intravenously with Compound 15 solution formulation in 5% NMP, 5% Solutol HS-15, 30% PEG-400 and 60% Captisol (20% w/v) at 2 mg/kg dose. […] Considering mortality intravenous dose was reduced to 2 mg/kg.
Animals in Group 2 and 3 were administered with Compound 15 solution formulation in 5% NMP, 5% Solutol HS-15, 30% PEG-400 and 60% Captisol (20% w/v) at a dose of 10 mg/kg by intraperitoneal and oral route respectively.
(§2) Blood samples (approximately 60 μL) were collected under light isoflurane anesthesia from retro orbital plexus from a set of three mice at 0.08, 0.35, 1, 3, 6, 12 and 24 hr. Plasma samples were separated by centrifugation of whole blood and stored below −70±10° C. until bioanalysis. Immediately after collection of blood, brain samples were collected from set of three mice at each time point. Brain samples were homogenized using ice-cold phosphate buffer saline (pH-7.4) in a ratio of 2 (buffer):1(brain); and homogenates were stored below −70±10° C. until analysis. Total homogenate volume was three times the brain weight. All samples were processed for analysis by protein precipitation using acetonitrile and analyzed with fit-for-purpose LC/MS/MS method (LLOQ2.00 ng/mL for plasma and 3.00 ng/g for brain). Pharmacokinetic parameters were calculated using the non-compartmental analysis tool of Phoenix WinNonlin® (Version 7.0). Pharmacokinetic parameters of Compound 15 are summarized below.
as §1, with “Compound 16” for “Compound (14”, “1: 10” for “1: 2”
Animals in Group 1 were administered intravenously with Compound 16 solution formulation in 5% NMP, 5% Solutol HS-15 and 90% normal saline at 10 mg/kg dose.
Animals in Group 2 and 3 were administered with Compound 16 solution formulation in 5% NMP, 5% Solutol HS-15 and 90% normal saline at a dose of 10 mg/kg by intraperitoneal and oral route respectively.
as §2, with “(LLOQ—1.00” for “(LLOQ2.00”, “16” for “15”
as §1, with “17” for “(14”, “mice. […]” for “mice.”

[1] = brain, ip, 10 mg/kg, IP 10 mg/kg, read-out: Brain-to-plasma ratio
[2] = brain, po, 10 mg/kg, PO 10 mg/kg, read-out: Brain-to-plasma ratio
[3] = brain/plasma, iv, 10 mg/kg, IV 10 mg/kg, read-out: Brain-to-plasma ratio
[4] = in vivo, ip, 10 mg/kg, Brain concentration, individual animal
[5] = in vivo, ip, 10 mg/kg, Mean brain conc.
[6] = in vivo, ip, 10 mg/kg, Mean plasma conc.
[7] = in vivo, ip, 10 mg/kg, Plasma concentration, individual animal
[8] = in vivo, iv, 10 mg/kg, Brain concentration, individual animal
[9] = in vivo, iv, 10 mg/kg, Mean brain conc.
[10] = in vivo, iv, 10 mg/kg, Mean plasma conc.
[11] = in vivo, iv, 10 mg/kg, Plasma concentration, individual animal
[12] = in vivo, po, 10 mg/kg, Brain concentration, individual animal
[13] = in vivo, po, 10 mg/kg, Mean brain conc.
[14] = in vivo, po, 10 mg/kg, Mean plasma conc.
[15] = in vivo, po, 10 mg/kg, Plasma concentration, individual animal

`Cc1nc2ccccn2c1-c1csc(Nc2ccc3c(c2)OC(F)(F)O3)n1` [Compound 16, N-(2,2-difluorobenzo[d][1,3]dioxol-5-yl)-4-(2-methylimidazo[1,2-a]pyridin-3-yl)thiazol-2-amine hydrochloride] gave a Kp at 3 h (brain and plasma, iv, 10 mg/kg, IV 10 mg/kg, read-out: Brain-to-plasma ratio) of 1.6, a Kp at 0.08 h [1] of 0.78 and a Kp at 0.35 h [1] of 1.6. The Kp at 1 h [1] was 2.01, the Kp at 3 h [1] was 4.34 and the Kp (brain, ip, 10 mg/kg, IP 10 mg/kg, read-out: brain-to-plasma ratio, range over time) was 0.78 to 4.34. For the same compound, the Kp (brain, iv, 10 mg/kg, IV 10 mg/kg, read-out: brain-to-plasma ratio, range over time) was 0.96 to 2.78, the Kp at 0.08 h [2] was 1.07 and the Kp at 0.35 h [2] was 1.83. The Kp at 1 h [2] was 1.67, the Kp at 3 h [2] was 1.73 and the Kp at 6 h (brain, po, 10 mg/kg, PO 10 mg/kg, 6 hr, read-out: Brain-to-plasma ratio) was 1.81. For the same compound, the Kp (brain, po, 10 mg/kg, PO 10 mg/kg, read-out: brain-to-plasma ratio, range over time) was 1.07 to 1.81, the Kp (brain, po, 10 mg/kg, summary data, read-out: Brain to plasma ratio following a single oral dose) was 1.81 and the Kp at 0.08 h [3] was 1.05. The Kp at 0.35 h [3] was 0.96, the Kp at 1 h [3] was 2.78 and the “Brain concentrations quantifiable up to” value (in vivo, ip, 10 mg/kg) was “up to 3 hr”. The “Plasma concentrations quantifiable up to” value (in vivo, ip, 10 mg/kg) was “up to 3 hr”, the “Brain concentration, individual animal” value (in vivo, ip, 10 mg/kg, 6 h) was 0.00 ng/g and the “Plasma concentration, individual animal” value (in vivo, ip, 10 mg/kg, 6 h) was 0.00 ng/mL. For the same compound, the “Brain concentration, individual animal” value (in vivo, ip, 10 mg/kg, 12 h) was 0.00 ng/g, the “Plasma concentration, individual animal” value (in vivo, ip, 10 mg/kg, 12 h) was 0.00 ng/mL and the “Brain concentration, individual animal” value (in vivo, ip, 10 mg/kg, 24 h) was 0.00 ng/g. The “Plasma concentration, individual animal” value (in vivo, ip, 10 mg/kg, 24 h) was 0.00 ng/mL, the concentration at 6 h [4] was 0 ng/g and the concentration at 12 h [4] was 0 ng/g. It also gave a concentration at 24 h [4] of 0 ng/g, a concentration at 0.08 h [5] of 558 ng/g and a concentration at 0.35 h [5] of 680 ng/g. For the same compound, the concentration at 1 h [5] was 159 ng/g, the concentration at 3 h [5] was 6.21 ng/g and the concentration at 6 h [5] was 0 ng/g. The concentration at 12 h [5] was 0 ng/g, the concentration at 24 h [5] was 0 ng/g and the concentration at 0.08 h [6] was 713 ng/mL. The concentration at 0.35 h [6] was 426 ng/mL, the concentration at 1 h [6] was 79.1 ng/mL and the concentration at 3 h [6] was 1.43 ng/mL. For the same compound, the concentration at 6 h [6] was 0 ng/mL, the concentration at 12 h [6] was 0 ng/mL and the concentration at 24 h [6] was 0 ng/mL. It also gave a concentration at 0.08 h [7] of 688 ng/mL, a concentration at 0.35 h [7] of 391 ng/mL and a concentration at 1 h [7] of 62 ng/mL. The concentration at 6 h [7] was 0 ng/mL, the concentration at 12 h [7] was 0 ng/mL and the concentration at 24 h [7] was 0 ng/mL. For the same compound, the “Brain concentrations quantifiable up to” value (in vivo, iv, 10 mg/kg) was “up to 6 hr”, the “Vss, fold more than normal volume of total body water (0.7 L/kg)” value (in vivo, iv, 10 mg/kg) was 6.6 fold and the “Plasma concentration, individual animal” value (in vivo, iv, 10 mg/kg, 6 hr) was 0.00 ng/mL. The “Brain concentration, individual animal” value (in vivo, iv, 10 mg/kg, 12 hr) was 0.00 ng/g, the “Plasma concentration, individual animal” value (in vivo, iv, 10 mg/kg, 12 hr) was 0.00 ng/mL and the “Brain concentration, individual animal” value (in vivo, iv, 10 mg/kg, 24 hr) was 0.00 ng/g. For the same compound, the “Plasma concentration, individual animal” value (in vivo, iv, 10 mg/kg, 24 hr) was 0.00 ng/mL, the concentration at 12 hr [8] was 0 ng/g and the concentration at 24 hr [8] was 0 ng/g. It also gave a concentration at 0.08 h [9] of 1660 ng/g, a concentration at 0.35 h [9] of 514 ng/g and a concentration at 1 h [9] of 225 ng/g. The concentration at 3 h [9] was 9.01 ng/g, the concentration at 6 hr [9] was 5.13 ng/g and the concentration at 12 hr [9] was 0 ng/g. For the same compound, the concentration at 24 hr [9] was 0 ng/g, the concentration at 0.08 h [10] was 1580 ng/mL and the concentration at 0.35 h [10] was 535 ng/mL. It also gave a concentration at 1 h [10] of 80.7 ng/mL, a concentration at 3 h [10] of 5.64 ng/mL and a concentration at 6 hr [10] of 0 ng/mL. It also gave a concentration at 12 hr [10] of 0 ng/mL, a concentration at 24 hr [10] of 0 ng/mL and a concentration at 0.08 hr [11] of 2190 ng/mL. The concentration at 0.35 hr [11] was 417 ng/mL, the concentration at 1 hr [11] was 60.9 ng/mL and the concentration at 6 hr [11] was 0 ng/mL. The concentration at 12 hr [11] was 0 ng/mL, the concentration at 24 hr [11] was 0 ng/mL and the “Brain concentrations quantifiable up to” value (in vivo, po, 10 mg/kg) was “up to 12 hr”. The “Plasma concentrations quantifiable up to” value (in vivo, po, 10 mg/kg) was “up to 6 hr”, the “Brain concentration, individual animal” value (in vivo, po, 10 mg/kg, 0.08 h) was 115.35 ng/g and the Mean plasma conc. (in vivo, po, 10 mg/kg, 3 h) was 3.35^f ng/mL. For the same compound, the “Plasma concentration, individual animal” value (in vivo, po, 10 mg/kg, 12 h) was 0.00 ng/mL, the “Plasma concentration, individual animal” value (in vivo, po, 10 mg/kg, 24 h) was 0.00 ng/mL and the concentration at 0.08 h [12] was 221 ng/g. It also gave a concentration at 24 h [12] of 0 ng/g, a concentration at 0.08 h [13] of 187 ng/g and a concentration at 0.35 h [13] of 254 ng/g. The concentration at 1 h [13] was 48.9 ng/g, the concentration at 3 h [13] was 5.78 ng/g and the concentration at 6 h [13] was 4.52 ng/g. For the same compound, the concentration at 12 h [13] was 3.9 ng/g, the concentration at 24 h [13] was 0 ng/g and the concentration at 0.08 h [14] was 175 ng/mL. It also gave a concentration at 0.35 h [14] of 138 ng/mL, a concentration at 1 h [14] of 29.3 ng/mL and a concentration at 3 h [14] of 3.35 ng/mL. For the same compound, the concentration at 6 h [14] was 2.5 ng/mL, the concentration at 12 h [14] was 0 ng/mL and the concentration at 24 h [14] was 0 ng/mL. It also gave a concentration at 12 h [15] of 0 ng/mL, a concentration at 24 h [15] of 0 ng/mL and a bioavailability (plasma, po, 10 mg/kg, PO 10 mg/kg, AUClast considered, read-out: Oral bioavailability, % F) of 20%. For the same compound, the bioavailability (plasma, po, 10 mg/kg, summary data, read-out: Oral bioavailability) was 20%, the Tmax (plasma, IP 10 mg/kg) was 4.8 min and the clearance (plasma, IV 10 mg/kg, read-out: CL, plasma clearance) was 230 mL/min/kg. The half-life (plasma, IV 10 mg/kg, read-out: T1/2, terminal elimination half-life (converted)) was 25.8 min and the Tmax (plasma, PO 10 mg/kg) was 4.8 min.
